In patent US12187727B2, “Methods for antagonizing a melanocortin 4 receptor” (Pfizer Inc., priority 2020, dated 2025):
Where two headings read alike, the source gives them in different places.

Key:
[1] = molecular target: human Melanocortin-4 receptor (MC4R) (Homo sapiens (Human), UniProt P32245); assay: Functional in vitro MC4R antagonist potency assay (cAMP HTRF in CHO cells); type: cell-based
In short: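 CHO cells stably expressing human MC4R were preincubated 30 min at 37 °C with compound ([…], 0.1% DMSO), then stimulated 30 min with EC80 αMSH (200 nM). Intracellular cAMP quantified by HTRF competitive immunoassay and normalized to agonist-stimulated and vehicle-only wells.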

hMC4R = hMC4R (Homo sapiens (Human), UniProt P32245); assay: In vitro binding affinity assay using hMC4R (radioligand competition binding, [125I]-(Nle4, D-Phe7)-α-MSH); details: geometric mean
Procedure: Example AA. In Vitro Binding Affinity Assay Using hMC4R
The binding affinity of test compounds at the […] (hMC4R) was assessed using a radioligand competition binding assay. […] Cell membranes were bulked and frozen until the assay was performed.
Compounds were solubilized in 100% dimethyl sulfoxide (DMSO) to a concentration of 30 mM. A 10-point intermediate dilution series using half log dilutions was created in 100% DMSO with a top concentration of 0.03 mM. […] The final compound range in the assay was 300 nM to 0.01 nM with a final DMSO concentration of 1%. […] The exact concentration of radioligand used for each experiment was determined by liquid scintillation counting and adjusted if necessary.
Frozen hMC4R cell membranes were thawed and Dounce homogenized. Homogenates were resuspended in assay buffer to a concentration of 2 μg per well. […] The plates were incubated for 2 hours at room temperature.
The raw data (expressed as counts per minute) were analyzed using ActivityBase (IDBS Data Management Software). […] Equilibrium dissociation constant for inhibitor of ligand and receptor interaction (Ki) values were then calculated from the IC50 values using the Cheng-Prusoff equation: Ki=IC50/(1+([L]/Kd)), where [L] is the concentration of the radioligand used in the experiment and Kd is the affinity of the radioligand (determined in separate saturation experiments).

[2] = read-out: Kb (nM) Antagonist geometric mean
[3] = read-out: Ki (nM) geometric mean
[4] = human MC4R in CHO cells, cAMP HTRF, 200 nM aMSH challenge, Kb from IC50 by Leff-Dougall equation, geometric mean, read-out: Kb (nM) Antagonist geometric

Sequence of hMC4R (P32245 whole entry): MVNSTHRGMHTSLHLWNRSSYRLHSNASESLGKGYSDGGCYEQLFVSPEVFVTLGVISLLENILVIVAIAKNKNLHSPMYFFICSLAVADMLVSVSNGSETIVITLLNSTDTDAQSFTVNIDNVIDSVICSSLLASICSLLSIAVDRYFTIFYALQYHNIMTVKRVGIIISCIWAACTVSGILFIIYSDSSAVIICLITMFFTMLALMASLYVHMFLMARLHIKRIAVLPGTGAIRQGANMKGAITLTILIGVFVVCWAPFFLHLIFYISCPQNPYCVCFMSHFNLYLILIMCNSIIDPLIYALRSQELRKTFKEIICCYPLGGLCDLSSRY
Sequence of human Melanocortin-4 receptor (MC4R) (P32245 whole entry): as above

SMILES | Kb [1, 2] | Ki (hMC4R; [3]) | Kb [1, 4] | Ki (hMC4R; read-out: Ki (nM) geometric)
Cc1nc2c(cc1-c1ncccn1)CC[C@@]1(CCN(C(=O)[C@H](C)c3ccc(Cl)cc3Cl)C1)N2 (single isomer, unassigned) [Example 35] | > 95 nM | 82 nM | – | –
Cc1nc2c(cc1-c1ncccn1)CC[C@@]1(CCN(C(=O)C(C)c3cc(OC(F)(F)F)ncc3Cl)C1)N2 (single isomer, unassigned) [Example 64] | 5.1 nM | 1 nM | – | –
COc1cc([C@@H](C)C(=O)N2CCC3(CCc4cc(-c5nc(OC)n(C)n5)c(C)nc4N3)C2)c(Cl)cn1 (single isomer, unassigned) [Example 115] | – | – | 3.5 nM | 31 nM
COc1cc(CC(=O)N2CC[C@@]3(CCc4cc(-c5ncccn5)c(C)nc4N3)C2)c(F)cn1 [Example 106, 2-(5-fluoro-2-methoxypyridin-4-yl)-1-[(2S)-7-methyl-6-(pyrimidin-2-yl)-3,4-dihydro-1H-spiro[1,8-naphthyridine-2,3′-pyrrolidin]-1′-yl]ethan-1-one] | – | – | 6.3 nM | 3.5 nM
COc1cc([C@@H](C)C(=O)N2CC[C@@]3(CCc4cc(-c5nc(C(F)F)n(C)n5)c(C)nc4N3)C2)nc(C)n1 (single isomer, unassigned) [Example 124] | – | – | 0.81 nM | 6.7 nM
COc1cc([C@@H](C)C(=O)N2CCC3(CCc4cc(-c5nc(OC)n(C)n5)c(C)nc4N3)C2)c(Cl)cn1 (single isomer, unassigned) [Example 114] | – | – | 0.25 nM | 0.48 nM
COc1ncc(F)c([C@@H](C)C(=O)N2CC[C@@]3(CCc4cc(-c5nc6ccccn6n5)c(C)nc4N3)C2)n1 (single isomer, unassigned) [Example 132] | – | – | 35 nM | 3.4 nM
COc1cc([C@@H](C)C(=O)N2CCC3(CCc4cc(-c5cnn(C)c5)c(C)nc4N3)C2)c(F)cn1 (single isomer, unassigned) [Example 17] | > 64 nM | 69 nM | – | –
COc1cc([C@@H](C)C(=O)N2CCC3(CCc4cc(-c5nnn(C)n5)c(C)nc4N3)C2)c(Cl)cn1 (single isomer, unassigned) [Example 2] | 1.2 nM | 4.5 nM | – | –
Cc1nc2c(cc1-c1ncccn1)CC[C@@]1(CCN(C(=O)[C@H](C)c3cc(C(F)(F)F)ncc3Cl)C1)N2 (single isomer, unassigned) [Example 39] | 23 nM | 4.9 nM | – | –
COc1cc([C@@H](C)C(=O)N2CC[C@@]3(CCc4ccc(C)nc4N3)C2)nc(C)n1 (single isomer, unassigned) [Example 24, 2-(6-methoxy-2-methylpyrimidin-4-yl)-1-(7-methyl-3,4-dihydro-1H-spiro[1,8-naphthyridine-2,3′-pyrrolidin]-1′-yl)propan-1-one] | > 97 nM | 77 nM | – | –
Cc1nc2c(cc1-c1ncccn1)CC[C@@]1(CCN(C(=O)[C@H](C)c3ccc(OC(F)(F)F)cc3)C1)N2 (single isomer, unassigned) [Example 49] | > 95 nM | 64 nM | – | –
Cc1nc2c(cc1-c1ncccn1)CC[C@@]1(CCN(C(=O)[C@H](C)c3ccc(OC(F)(F)F)cc3)C1)N2 (single isomer, unassigned) [Example 48] | 1.8 nM | 0.36 nM | – | –
Cc1nc2c(cc1-c1ncccn1)CC[C@@]1(CCN(C(=O)C(C)c3ccc(C(F)(F)F)cc3)C1)N2 (single isomer, unassigned) [Example 7] | 8.1 nM | 0.62 nM | – | –
Cc1nc2c(cc1-c1ncccn1)CC[C@@]1(CCN(C(=O)[C@H](C)c3cc(F)c(F)c(F)c3)C1)N2 (single isomer, unassigned) [Example 55] | > 95 nM | 58 nM | – | –
COc1cc([C@@H](C)C(=O)N2CC[C@@]3(CCc4cc(-c5cnn(C)c5)c(C)nc4N3)C2)c(Cl)cn1 (single isomer, unassigned) [Example 105] | – | – | 16 nM | 54 nM
COc1cc([C@@H](C)C(=O)N2CC[C@@]3(CCc4cc(-c5nc6ccccn6n5)c(C)nc4N3)C2)nc(C(F)F)n1 (single isomer, unassigned) [Example 129] | – | – | 1.5 nM | 0.44 nM
Cc1nc2c(cc1-c1nnn(C)n1)CC[C@@]1(CCN(C(=O)[C@H](C)c3ccc(OC(F)F)nc3)C1)N2 (single isomer, unassigned) [Example 108] | – | – | 7.1 nM | 1.2 nM
COc1nccc([C@@H](C)C(=O)N2CC[C@@]3(CCc4cc(-c5ncccn5)c(C)nc4N3)C2)c1F (single isomer, unassigned) [Example 57] | 12 nM | 2.5 nM | – | –

SMILES | Kb [1, 2] | Ki (hMC4R; [3]) | Kb [1, 4] | Ki (hMC4R; read-out: Ki (nM) geometric)
Cc1nc2c(cc1-c1ncccn1)CC[C@@]1(CCN(C(=O)[C@H](C)c3ccnc(OC(F)F)c3)C1)N2 (single isomer, unassigned) [Example 195] | – | – | 3.5 nM | 1.2 nM
Cc1nc2c(cc1-c1ncccn1)CC[C@@]1(CCN(C(=O)[C@H](C)c3cc(F)c(F)cc3F)C1)N2 (single isomer, unassigned) [Example 52] | 2.6 nM | 0.68 nM | – | –
Cc1nc2c(cc1-c1ncccn1)CC[C@@]1(CCN(C(=O)[C@H](C)c3cc(F)c(F)cc3F)C1)N2 (single isomer, unassigned) [Example 53] | > 95 nM | 54 nM | – | –
COc1cc(OC(F)F)cc([C@@H](C)C(=O)N2CC[C@@]3(CCc4cc(-c5ncccn5)c(C)nc4N3)C2)c1 (single isomer, unassigned) [Example 62] | 0.08 nM | 0.15 nM | – | –
Cc1nc2c(cc1-c1ncccn1)CC[C@@]1(CCN(C(=O)[C@H](C)c3ccc(Cl)cc3Cl)C1)N2 (single isomer, unassigned) [Example 34] | 4.2 nM | 0.9 nM | – | –
COc1cc([C@@H](C)C(=O)N2CC[C@@]3(CCc4cc(-c5cncc(OC)n5)c(C)nc4N3)C2)c(F)cn1 [Example 197, (2R)-2-(5-fluoro-2-methoxypyridin-4-yl)-1-[(2S)-6-(6-methoxypyrazin-2-yl)-7-methyl-3,4-dihydro-1H-spiro[1,8-naphthyridine-2,3′-pyrrolidin]-1′-yl]propan-1-one] | – | – | 33 nM | 18 nM
COc1cc(OC)cc([C@@H](C)C(=O)N2CC[C@@]3(CCc4ccc(C)nc4N3)C2)c1 (single isomer, unassigned) [Example 96] | 11 nM | 4.1 nM | – | –
COc1cc([C@@H](C)C(=O)N2CC[C@@]3(CCc4cc(-c5ncccn5)c(C)nc4N3)C2)c(C)cn1 (single isomer, unassigned) [Example 137] | – | – | 19 nM | 59 nM
Cc1nc2c(cc1-c1ncccn1)CC[C@@]1(CCN(C(=O)C(C)c3ccc(C(F)(F)F)cc3)C1)N2 (single isomer, unassigned) [Example 8] | > 95 nM | 76 nM | – | –
Cc1nc2c(cc1-c1ncccn1)CC[C@@]1(CCN(C(=O)[C@H](C)c3cc(C(F)(F)F)ncc3F)C1)N2 (single isomer, unassigned) [Example 80] | 28 nM | 8 nM | – | –
Cc1nc2c(cc1-c1ncccn1)CC[C@@]1(CCN(C(=O)[C@H](C)c3ccc(F)cc3F)C1)N2 (single isomer, unassigned) [Example 191] | – | – | > 94 nM | 230 nM
COc1cc([C@@H](C)C(=O)N2CCC3(CCc4cc(-c5cnn(C)c5)c(C)nc4N3)C2)c(F)cn1 (single isomer, unassigned) [Example 16] | 0.88 nM | 0.36 nM | – | –
COc1cc([C@@H](C)C(=O)N2CCC3(CCc4cc(-c5nnn(C)n5)c(C)nc4N3)C2)c(Cl)cn1 (single isomer, unassigned) [Example 1] | 0.049 nM | 0.21 nM | – | –
COc1cc([C@@H](C)C(=O)N2CC[C@@]3(CCc4cc(-c5nc6ccccn6n5)c(C)nc4N3)C2)nc(C(F)F)n1 (single isomer, unassigned) [Example 130] | – | – | 9 nM | 5.9 nM
COc1ncc(F)c([C@@H](C)C(=O)N2CC[C@@]3(CCc4cc(-c5nnn(C)n5)c(C)nc4N3)C2)n1 (single isomer, unassigned) [Example 135] | – | – | 10 nM | 3.8 nM
COc1cc([C@@H](C)C(=O)N2CC[C@@]3(CCc4cc(-c5ncccn5)c(C)nc4N3)C2)c(C(F)(F)F)cn1 (single isomer, unassigned) [Example 41] | 0.12 nM | 0.53 nM | – | –
Cc1nc2c(cc1-c1ncccn1)CC[C@@]1(CCN(C(=O)[C@H](C)c3cc(OC(F)F)ncc3Cl)C1)N2 (single isomer, unassigned) [Example 60] | 0.18 nM | 0.54 nM | – | –
Cc1nc2c(cc1-c1ncccn1)CC[C@@]1(CCN(C(=O)[C@H](C)c3cc(OC(F)(F)F)ncc3F)C1)N2 (single isomer, unassigned) [Example 76] | 9 nM | 2.2 nM | – | –
COc1cc([C@@H](C)C(=O)N2CC[C@@]3(CCc4cc(-c5nc(C(F)(F)F)n(C)n5)c(C)nc4N3)C2)c(F)cn1 (single isomer, unassigned) [Example 93] | 4.1 nM | 16 nM | – | –
